Experimental data reported in ChEMBL document CHEMBL4229536, “In vitro and in vivo pharmacokinetic and pharmacodynamic study of MBRI-001, a deuterium-substituted plinabulin derivative as a potent anti-cancer agent” (Bioorg Med Chem, 2018).

Legend:
[1] = Stability in rat plasma at 1 uM after 5 mins by LC-MS/MS analysis; assay type: ADME, cell-free; details: read-out: Stability
[2] = Stability in rat plasma at 1 uM after 60 mins by LC-MS/MS analysis; assay type: ADME, cell-free; details: read-out: Stability
[3] = Stability in rat liver microsomes at 50 uM after 90 mins in presence of NADPH by LC-MS/MS analysis; assay type: ADME, microsome; details: read-out: Stability
[4] = Stability in rat liver microsomes at 50 uM after 270 mins in presence of NADPH by LC-MS/MS analysis; assay type: ADME, microsome; details: 4.5 h
Cytochrome P450 3A4 = Cytochrome P450 3A4 (Homo sapiens, UniProt P08684); assay: Inhibition of CYP3A4 in human liver microsomes preincubated for 10 mins followed by NADPH addition measured after 10 mins by LC-MS/MS analysis; assay type: ADME
Chain of Cytochrome P450 3A4 (P08684 whole entry): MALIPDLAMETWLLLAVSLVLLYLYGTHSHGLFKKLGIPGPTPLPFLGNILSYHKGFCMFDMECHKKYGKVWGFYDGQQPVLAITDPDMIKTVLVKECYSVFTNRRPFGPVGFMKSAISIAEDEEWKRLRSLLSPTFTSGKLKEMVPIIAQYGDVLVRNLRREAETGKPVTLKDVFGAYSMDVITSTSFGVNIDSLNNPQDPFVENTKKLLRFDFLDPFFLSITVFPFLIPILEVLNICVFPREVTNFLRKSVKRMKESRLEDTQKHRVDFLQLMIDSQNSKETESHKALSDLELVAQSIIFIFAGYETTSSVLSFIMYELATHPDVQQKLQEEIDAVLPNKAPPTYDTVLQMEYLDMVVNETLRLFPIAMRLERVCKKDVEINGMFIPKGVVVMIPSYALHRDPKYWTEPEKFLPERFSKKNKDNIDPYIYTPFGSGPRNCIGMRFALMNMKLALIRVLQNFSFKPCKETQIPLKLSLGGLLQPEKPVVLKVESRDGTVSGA

[5] = Protein binding in human plasma at 2 uM after 4 hrs by LC-MS/MS analysis; assay type: ADME, cell-free; details: read-out: PPB (converted)
[6] = Protein binding in Beagle dog plasma at 2 uM after 4 hrs by LC-MS/MS analysis; assay type: ADME, cell-free, Canis lupus familiaris; details: read-out: PPB (converted)
[7] = AUClast in Wistar rat at 4 mg/kg, iv; assay type: ADME, organism-based; design: dose 4 mg/kg, route intravenous, time 0 - last; details: in vivo
[8] = AUC (0 to infinity) in Wistar rat at 4 mg/kg, iv; assay type: ADME, organism-based; design: dose 4 mg/kg, time infinity, route intravenous; details: in vivo
[9] = Clearance in Wistar rat at 4 mg/kg, iv; assay type: ADME, organism-based; details: in vivo
[10] = Half life in Wistar rat at 8 mg/kg, iv; assay type: ADME, organism-based; details: in vivo
[11] = Drug uptake in Wistar rat pancreas at 6 mg/kg, iv measured after 0.5 hrs; assay type: ADME, organism-based; details: in vivo
[12] = Drug uptake in Wistar rat small intestine at 6 mg/kg, iv measured after 0.5 hrs; assay type: ADME, organism-based; details: in vivo
[13] = Drug uptake in Wistar rat large intestine at 6 mg/kg, iv measured after 0.5 hrs; assay type: ADME, organism-based; details: in vivo
[14] = Drug uptake in Wistar rat heart at 6 mg/kg, iv measured after 1 hr; assay type: ADME, organism-based; details: in vivo
[15] = Drug uptake in Wistar rat liver at 6 mg/kg, iv measured after 4 hrs; assay type: ADME, organism-based; details: in vivo
[16] = Drug uptake in Wistar rat kidney at 6 mg/kg, iv measured after 4 hrs; assay type: ADME, organism-based; details: in vivo
[17] = Drug uptake in Wistar rat small intestine at 6 mg/kg, iv measured after 4 hrs; assay type: ADME, organism-based; details: in vivo
[18] = Drug uptake in Wistar rat brain at 6 mg/kg, iv measured after 4 hrs; assay type: ADME, organism-based; details: in vivo
[19] = Drug uptake in Wistar rat small intestine at 6 mg/kg, iv measured after 8 hrs; assay type: ADME, organism-based; details: in vivo
[20] = Drug uptake in Wistar rat large intestine at 6 mg/kg, iv measured after 8 hrs; assay type: ADME, organism-based; details: in vivo
[21] = Drug uptake in Wistar rat heart at 6 mg/kg, iv measured after 8 hrs; assay type: ADME, organism-based; details: in vivo
[22] = Drug uptake in Wistar rat liver at 6 mg/kg, iv measured after 12 hrs; assay type: ADME, organism-based; details: in vivo
[23] = Drug uptake in Wistar rat kidney at 6 mg/kg, iv measured after 12 hrs; assay type: ADME, organism-based; details: in vivo
[24] = Drug uptake in Wistar rat small intestine at 6 mg/kg, iv measured after 12 hrs; assay type: ADME, organism-based; details: in vivo
[25] = Drug excretion in Wistar rat feces at 4 mg/kg, iv measured after 4 hrs; assay type: ADME, organism-based; details: faeces, read-out: Drug excretion
[26] = Drug excretion in Wistar rat feces at 4 mg/kg, iv measured after 8 hrs; assay type: ADME, organism-based; details: faeces, read-out: Drug excretion
[27] = Drug excretion in Wistar rat feces at 4 mg/kg, iv measured after 108 hrs; assay type: ADME, organism-based; details: faeces, read-out: Drug excretion
[28] = Drug excretion in Wistar rat urine at 4 mg/kg, iv measured after 0.5 hrs; assay type: ADME, organism-based; details: read-out: Drug excretion
[29] = Drug excretion in Wistar rat urine at 4 mg/kg, iv measured after 8 hrs; assay type: ADME, organism-based; details: read-out: Drug excretion
[30] = Drug excretion in Wistar rat urine at 4 mg/kg, iv measured after 108 hrs; assay type: ADME, organism-based; details: read-out: Drug excretion
Mus musculus [31] = assay: Toxicity in Balb/c mouse assessed as mortality at 20 mg/kg, iv administered three times in a day every 2 days for 15 consecutive days; assay type: organism-based; details: in vivo, 48 h
Mus musculus [32] = assay: Toxicity in Balb/c mouse assessed as decrease in body weight at 10 to 15 mg/kg, iv administered three times in a day every 2 days for 15 consecutive days; assay type: organism-based; details: in vivo, 48 h
[33] = Toxicity in Balb/c mouse administered iv three times in a day every 2 days for 15 consecutive days; assay type: organism-based; details: in vivo
Mus musculus [34] = assay: Toxicity in nude mouse xenografted with human NCI-H460 cells assessed as body weight at 6 mg/kg, iv administered once in every 2 days for 14 consecutive days (reference value: 20.6 +/- 1.5 g); assay type: organism-based; details: in vivo, 48 h
Mus musculus [35] = assay: Toxicity in nude mouse xenografted with human NCI-H460 cells assessed as death at 3 to 9 mg/kg, iv administered once in every 2 days for 14 consecutive days; assay type: organism-based; details: in vivo, 48 h

[2H]/C(c1nc[nH]c1C(C)(C)C)=c1/[nH]c(=O)/c(=C/c2ccccc2)[nH]c1=O
remaining at 5 min, 1 µM [1]: 93.9%
remaining at 1 h, 1 µM [2]: 94.3%
remaining at 1.5 h, 50 µM [3]: 39.9%
Stability [4]: 35.33%
IC50 (Cytochrome P450 3A4): > 50 µM
fraction unbound at 4 h, 2 µM [5]: 0.021
fraction unbound at 4 h, 2 µM [6]: 0.027
AUC(0-t) [7]: 1.33 µg·h/mL
AUC(0-inf) [8]: 1.33 µg·h/mL
clearance [9]: 4.28 L/h/kg
half-life [10]: 2.29 h
Drug uptake [11]: 7096.2 ng/mL/g
Drug uptake [12]: 1799.2 ng/mL/g
Drug uptake [13]: 1936.4 ng/mL/g
Drug uptake [14]: 3836.3 ng/mL/g
Drug uptake [15]: 4220 ng/mL/g
Drug uptake [16]: 3570.8 ng/mL/g
Drug uptake [17]: 336.9 ng/mL/g
Drug uptake [18]: 166.5 ng/mL/g
Drug uptake [19]: 160 ng/mL/g
Drug uptake [20]: 1188.5 ng/mL/g
Drug uptake [21]: 88 ng/mL/g
Drug uptake [22]: 431.7 ng/mL/g
Drug uptake [23]: 175.1 ng/mL/g
Drug uptake [24]: 36.1 ng/mL/g
dose excreted at 4 h [25]: 0.11%
dose excreted at 8 h [26]: 0.11%
dose excreted at 108 h [27]: 6.83%
dose excreted at 0.5 h [28]: 0.02%
dose excreted at 8 h [29]: 0.13%
dose excreted at 108 h [30]: 0.67%
Activity (Mus musculus [31]): Toxic
Activity (Mus musculus [32]): Non-Toxic
MTD at 48 h [33]: 15 mg/kg
Activity (Mus musculus [34]): 21.1 g
Activity (Mus musculus [35]): Non-Toxic
